Assay results from the supplement of paper PMC10627819.

Key:
Experiment in all cases: fitness (endpoint OD595 vs no drug) (fraction); higher = more growth
S. aureus Newman = system: S. aureus Newman
Outline: (§1)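 Bacterial growth was followed in 384-well plates seeded at OD595 0.01, with 30 µl per well, or 55 µl for S. pneumoniae, in TSB, LB Lennox or CY at 37 °C. OD595 was read every 30 min for 14 h, and each reading had the first reading subtracted as background. Fitness is the background-corrected optical density at entry into stationary phase divided by the robust mean of the no-drug control wells. This ratio is capped at 1.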

S. pneumoniae D39V = system: S. pneumoniae D39V
Outline: as §1

B. subtilis 168 = system: B. subtilis 168
Outline: as §1

O=C(O)[C@H]1/C(=C/CO)O[C@@H]2CC(=O)N21 [Clavulanic acid] + C[C@@H]1O[C@@H]1P(=O)(O)O [Fosfomycin]
fitness, S. aureus Newman, one replicate
Conditions	first compound 0.03125 µg/mL	first compound 0.0625 µg/mL	first compound 0.125 µg/mL
partner 0.781 µg/mL	0.96	0.885	0.841
partner 1.562 µg/mL	0.679	0.626	0.598
partner 3.124 µg/mL	0.396	0.382	0.349

fitness
Conditions	first compound 0.5 µg/mL	first compound 1 µg/mL	first compound 1.5 µg/mL	first compound 2 µg/mL	first compound 3 µg/mL	first compound 6 µg/mL
B. subtilis 168, partner 1.562 µg/mL	–	–	0.691	–	0.644	0.559
B. subtilis 168, partner 3.124 µg/mL	–	–	0.564	–	0.529	0.453
B. subtilis 168, partner 6.248 µg/mL	–	–	0.478	–	0.416	0.301
S. pneumoniae D39V, partner 1.25 µg/mL	0.953	0.905	–	0.821	–	–
S. pneumoniae D39V, partner 2.5 µg/mL	0.933	0.872	–	0.802	–	–

O=C(O)[C@H]1/C(=C/CO)O[C@@H]2CC(=O)N21 [Clavulanic acid] + CN[C@@H]1[C@H](O[C@H]2[C@H](O[C@H]3[C@H](O)[C@@H](O)[C@H](N=C(N)N)[C@@H](O)[C@@H]3N=C(N)N)O[C@@H](C)[C@]2(O)C=O)O[C@@H](CO)[C@H](O)[C@H]1O [Streptomycin]
fitness, one replicate
Conditions	first compound 0.03125 µg/mL	first compound 0.0625 µg/mL	first compound 0.125 µg/mL	first compound 0.5 µg/mL	first compound 1 µg/mL	first compound 2 µg/mL
S. aureus Newman, partner 2 µg/mL	0.945	≥ 1	0.991	–	–	–
S. aureus Newman, partner 4 µg/mL	0.937	0.936	0.938	–	–	–
S. aureus Newman, partner 8 µg/mL	0.753	0.786	0.786	–	–	–
S. pneumoniae D39V, partner 16 µg/mL	–	–	–	0.761	0.774	0.649

fitness
Conditions	first compound 0.5 µg/mL	first compound 1 µg/mL	first compound 1.5 µg/mL	first compound 2 µg/mL	first compound 3 µg/mL	first compound 6 µg/mL
B. subtilis 168, partner 2 µg/mL	–	–	0.963	–	0.93	0.804
B. subtilis 168, partner 8 µg/mL	–	–	0.0564	–	0.0395	0.0332
S. pneumoniae D39V, partner 2 µg/mL	0.955	0.899	–	0.757	–	–
S. pneumoniae D39V, partner 4 µg/mL	0.929	0.886	–	0.78	–	–
S. pneumoniae D39V, partner 8 µg/mL	0.901	0.855	–	0.768	–	–

CNC(C)C1CCC(N)C(OC2C(N)CC(N)C(OC3OCC(C)(O)C(NC)C3O)C2O)O1 (stereo not drawn) [Gentamicin] + CO[C@@]12[C@H](COC(N)=O)C3=C(C(=O)C(C)=C(N)C3=O)N1C[C@@H]1N[C@@H]12 [Mitomycin C]
fitness, S. aureus Newman, one replicate, main component drawn
Conditions	first compound 0.375 µg/mL	first compound 0.75 µg/mL	first compound 1.5 µg/mL
partner 0.0156 µg/mL	0.755	0.779	0.774
partner 0.0312 µg/mL	0.762	0.725	0.707
partner 0.0625 µg/mL	0.602	0.603	0.607

fitness, main component drawn
Conditions	partner 0.001075 µg/mL	partner 0.002 µg/mL	partner 0.00215 µg/mL	partner 0.004 µg/mL	partner 0.0043 µg/mL	partner 0.008 µg/mL	partner 0.0156 µg/mL	partner 0.0312 µg/mL	partner 0.0625 µg/mL
S. aureus Newman, first compound 0.5 µg/mL	–	–	–	–	–	–	0.762	0.667	0.558
S. aureus Newman, first compound 1 µg/mL	–	–	–	–	–	–	0.797	0.698	0.601
S. aureus Newman, first compound 2 µg/mL	–	–	–	–	–	–	0.808	0.732	0.585
S. pneumoniae D39V, first compound 2 µg/mL	0.975	0.787	0.969	0.685	0.844	0.395	–	–	–
S. pneumoniae D39V, first compound 4 µg/mL	0.94	0.729	0.915	0.602	0.807	0.369	–	–	–
S. pneumoniae D39V, first compound 8 µg/mL	0.946	0.715	0.929	0.608	0.827	0.346	–	–	–

O=C(O)[C@H]1/C(=C/CO)O[C@@H]2CC(=O)N21 [Clavulanic acid] + CN[C@H](CC(C)C)C(=O)N[C@H]1C(=O)N[C@@H](CC(N)=O)C(=O)N[C@H]2C(=O)N[C@H]3C(=O)N[C@H](C(=O)N[C@H](C(=O)O)c4cc(O)cc(O)c4-c4cc3ccc4O)[C@H](O)c3ccc(c(Cl)c3)Oc3cc2cc(c3O[C@@H]2O[C@H](CO)[C@@H](O)[C@H](O)[C@H]2O[C@H]2C[C@](C)(N)[C@H](O)[C@H](C)O2)Oc2ccc(cc2Cl)[C@H]1O [Vancomycin]
fitness, S. aureus Newman, one replicate
Conditions	first compound 0.03125 µg/mL	first compound 0.0625 µg/mL	first compound 0.125 µg/mL
partner 0.1875 µg/mL	0.974	≥ 1	0.936
partner 0.375 µg/mL	0.975	≥ 1	0.923
partner 0.75 µg/mL	0.974	≥ 1	0.981

fitness, S. pneumoniae D39V
Conditions	partner 0.03125 µg/mL	partner 0.0625 µg/mL	partner 0.125 µg/mL	partner 0.25 µg/mL	partner 0.5 µg/mL
first compound 0.5 µg/mL	0.984	0.917	0.875	0.0377	0.0441
first compound 1 µg/mL	0.907	0.889	0.868	0.189	0.179
first compound 2 µg/mL	0.811	0.779	0.751	0.0611	0.078

O=C(O)[C@H]1/C(=C/CO)O[C@@H]2CC(=O)N21 [Clavulanic acid] + Cc1onc(-c2ccccc2)c1C(=O)N[C@@H]1C(=O)N2[C@@H]1SC(C)(C)[C@@H]2C(=O)O [Oxacillin]
fitness, one replicate
Conditions	partner 0.0078 µg/mL	partner 0.0155 µg/mL	partner 0.0156 µg/mL	partner 0.031 µg/mL	partner 0.0312 µg/mL	partner 0.0625 µg/mL	partner 0.075 µg/mL	partner 0.15 µg/mL	partner 0.3 µg/mL
B. subtilis 168, first compound 1.5 µg/mL	0.929	0.903	–	0.926	–	–	0.188	0.058	0.0448
B. subtilis 168, first compound 3 µg/mL	0.958	0.937	–	0.973	–	–	0.0579	0.0634	0.0505
B. subtilis 168, first compound 6 µg/mL	0.89	0.861	–	0.806	–	–	0.061	0.058	0.0518
S. aureus Newman, first compound 0.03125 µg/mL	–	–	0.861	–	0.801	0.628	–	–	–
S. aureus Newman, first compound 0.0625 µg/mL	–	–	0.785	–	0.784	0.564	–	–	–
S. aureus Newman, first compound 0.125 µg/mL	–	–	0.749	–	0.697	0.584	–	–	–

Conditions	fitness
B. subtilis 168, first compound 1.5 µg/mL, partner 0.002 µg/mL	0.917
B. subtilis 168, first compound 1.5 µg/mL, partner 0.004 µg/mL	0.956
B. subtilis 168, first compound 1.5 µg/mL, partner 0.008 µg/mL	0.962
B. subtilis 168, first compound 3 µg/mL, partner 0.002 µg/mL	0.901
B. subtilis 168, first compound 3 µg/mL, partner 0.004 µg/mL	0.899
B. subtilis 168, first compound 3 µg/mL, partner 0.008 µg/mL	0.866
B. subtilis 168, first compound 6 µg/mL, partner 0.002 µg/mL	0.827
B. subtilis 168, first compound 6 µg/mL, partner 0.004 µg/mL	0.788
B. subtilis 168, first compound 6 µg/mL, partner 0.008 µg/mL	0.762
S. pneumoniae D39V, first compound 0.5 µg/mL, partner 0.005 µg/mL	0.994
S. pneumoniae D39V, first compound 0.5 µg/mL, partner 0.01 µg/mL	0.953
S. pneumoniae D39V, first compound 0.5 µg/mL, partner 0.02 µg/mL	0.943
S. pneumoniae D39V, first compound 0.5 µg/mL, partner 0.04 µg/mL	0.401
S. pneumoniae D39V, first compound 1 µg/mL, partner 0.005 µg/mL	0.952
S. pneumoniae D39V, first compound 1 µg/mL, partner 0.01 µg/mL	0.888
S. pneumoniae D39V, first compound 1 µg/mL, partner 0.02 µg/mL	0.837
S. pneumoniae D39V, first compound 1 µg/mL, partner 0.04 µg/mL	0.228
S. pneumoniae D39V, first compound 2 µg/mL, partner 0.005 µg/mL	0.846
S. pneumoniae D39V, first compound 2 µg/mL, partner 0.01 µg/mL	0.749
S. pneumoniae D39V, first compound 2 µg/mL, partner 0.04 µg/mL	0.0623
